Measurements from patent publication EP2970215B1, “PYRROLIDINE DERIVATIVES, PHARMACEUTICAL COMPOSITIONS CONTAINING THEM, AND THEIR USE IN THERAPY” (AbbVie Deutschland GmbH & Co. KG, priority 2013, dated 2014).

These compounds were tested against T1, human GlyT1c transporter (Homo sapiens, UniProt P48067) (assay: Radioligand binding assay using recombinant CHO cell membranes expressing human GlyT1). Conditions: radioligand binding to human GlyT1c transporter-expressing membranes.
T1 construct: expressed in transfected cells; host or cells: CHO cells (recombinant; line hGlyT1c_5_CHO is named for the uptake assay)
T1 sequence (P48067 1-706): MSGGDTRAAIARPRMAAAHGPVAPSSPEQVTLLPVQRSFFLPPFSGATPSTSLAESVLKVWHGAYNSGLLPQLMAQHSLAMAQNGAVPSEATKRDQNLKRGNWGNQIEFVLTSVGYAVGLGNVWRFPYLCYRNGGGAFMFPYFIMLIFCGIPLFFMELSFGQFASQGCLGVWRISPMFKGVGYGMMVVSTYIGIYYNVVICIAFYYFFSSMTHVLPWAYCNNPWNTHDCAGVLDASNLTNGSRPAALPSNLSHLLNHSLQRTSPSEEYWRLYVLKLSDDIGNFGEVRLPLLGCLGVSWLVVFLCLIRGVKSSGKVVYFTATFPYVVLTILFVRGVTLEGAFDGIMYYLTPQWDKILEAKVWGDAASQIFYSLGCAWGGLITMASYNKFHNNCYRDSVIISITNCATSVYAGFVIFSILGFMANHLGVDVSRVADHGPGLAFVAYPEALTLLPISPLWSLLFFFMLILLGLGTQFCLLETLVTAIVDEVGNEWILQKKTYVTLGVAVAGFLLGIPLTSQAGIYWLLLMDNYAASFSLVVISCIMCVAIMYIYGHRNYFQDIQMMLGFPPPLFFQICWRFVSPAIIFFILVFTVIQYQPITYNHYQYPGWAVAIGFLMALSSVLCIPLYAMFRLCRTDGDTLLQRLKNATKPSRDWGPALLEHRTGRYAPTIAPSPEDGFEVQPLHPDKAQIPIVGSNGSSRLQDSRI
Excerpt: 2. Radioligand binding assays using recombinant CHO cell membranes expressing human GlyT1: […]
With `O=C(N[C@@H]1CN(S(=O)(=O)c2ccc(C(F)(F)F)cc2)C[C@H]1c1ccccc1)c1cccc(C(F)(F)F)c1Cl` (relative stereo) [Example 143, 2-chloro-N-[trans-4-phenyl-1-{[4-(trifluoromethyl)phenyl]sulfonyl}pyrrolidin-3-yl]-3-(trifluoromethyl)benzamide] the Ki was ≤ 10 µM. With `Cn1cnc(S(=O)(=O)N2C[C@H](Nc3cccc(Cl)c3)[C@@H](c3ccc(F)cc3)C2)c1` [Example 328, (3R,4S)-N-(3-chlorophenyl)-4-(4-fluorophenyl)-1-[(1-methyl-1H-imidazol-4-yl)sulfonyl]pyrrolidin-3-amine] the Ki was ≤ 0.1 µM. `Cn1cnc(S(=O)(=O)N2CC(c3ccc(F)cc3)C(c3ccccc3Cl)C2)c1` (stereo not drawn) [Example 339, 4-{[3-(2-chlorophenyl)-4-(4-fluorophenyl)pyrrolidin-1-yl]sulfonyl}-1-methyl-1H-imidazole] was tested, and the Ki was ≤ 10 µM. For `Cn1cnc(S(=O)(=O)N2C[C@@H](Nc3ccc(F)cc3F)[C@H](c3ccc(F)cc3)C2)c1` (relative stereo) [Example 165, trans-N-(2,4-difluorophenyl)-4-(4-fluorophenyl)-1-[(1-methyl-1H-imidazol-4-yl)sulfonyl]pyrrolidin-3-amine], the Ki was ≤ 1 µM. For `Cn1cnc(S(=O)(=O)N2C[C@@H](Nc3cc(C(F)(F)F)ncn3)[C@H](c3ccccc3)C2)c1` (relative stereo) [Example 240, N-{trans-1-[(1-methyl-1H-imidazol-4-yl)sulfonyl]-4-phenylpyrrolidin-3-yl} -6-(trifluoromethyl)pyrimidin-4-amine], the Ki was ≤ 0.1 µM. In the case of `CC(C)c1cc(N[C@H]2CN(S(=O)(=O)c3cn(C)cn3)C[C@@H]2c2ccc(F)cc2)ccc1Cl` [Example 675, (3R,4S)-N-[4-chloro-3-(propan-2-yl)phenyl]-4-(4-fluorophenyl)-1-[(1-methyl-1H-imidazol-4-yl)sulfonyl]pyrrolidin-3-amine], the Ki is reported as ≤ 1 µM. `Cc1ccccc1C(=O)N[C@@H]1CN(S(=O)(=O)c2cn(C)cn2)C[C@H]1c1ccccc1` (relative stereo) [Example 22, 2-methyl-N-{trans-1-[(1-methyl-1H-imidazol-4-yl)sulfonyl]-4-phenylpyrrolidin-3-yl}benzamide] was tested, and the Ki was ≤ 10 µM. `Cn1cnc(S(=O)(=O)N2C[C@@H](Nc3cccc(C(F)(F)F)c3)[C@H](c3ncccc3F)C2)c1` (relative stereo) [Example 798, Trans-4-(3-fluoropyridin-2-yl)-1-[(1-methyl-1H-imidazol-4-yl)sulfonyl]-N-[3-(trifluoromethyl)phenyl]pyrrolidin-3-amine] was tested, and the Ki was ≤ 0.1 µM. In the case of `COCCNC[C@@H]1CN(S(=O)(=O)c2cn(C)cn2)C[C@H]1c1ccc(F)cc1` (relative stereo) [Example 593, N-({trans-4-(4-fluorophenyl)-1-[(1-methyl-1H-imidazol-4-yl)sulfonyl]pyrrolidin-3-yl}methyl)-2-methoxyethanamine], the Ki is reported as ≤ 10 µM. `Cn1cnc(S(=O)(=O)N2C[C@@H](Nc3ccc(F)cc3F)[C@H](c3ccccc3)C2)c1` (relative stereo) [Example 233, trans-N-(2,4-difluorophenyl)-1-[(1-methyl-1H-imidazol-4-yl)sulfonyl]-4-phenylpyrrolidin-3-amine] was tested, and the Ki was ≤ 10 µM. `Cn1cnc(S(=O)(=O)N2C[C@@H](Nc3cc(C(F)(F)F)ncn3)[C@H](C3CCCCC3)C2)c1` (relative stereo) [Example 531, N-{trans-4-cyclohexyl-1-[(1-methyl-1H-imidazol-4-yl)sulfonyl]pyrrolidin-3-yl}-6-(trifluoromethyl)pyrimidin-4-amine] was tested, and the Ki was ≤ 0.1 µM. With `Cn1cnc(S(=O)(=O)N2C[C@@H](Nc3cccc(C(F)(F)F)c3)[C@H](C3CCCOC3)C2)c1` (relative stereo) [Example 782, trans-1-[(1-methyl-1H-imidazol-4-yl)sulfonyl]-4-(tetrahydro-2H-pyran-3-yl)-N-[3-(trifluoromethyl)phenyl]pyrrolidin-3-amine] the Ki was ≤ 1 µM. With `Cc1nn(C)cc1S(=O)(=O)N1C[C@@H](NC(=O)c2cccc(C(F)(F)F)c2Cl)[C@H](c2ccccc2)C1` (relative stereo) [Example 42, 2-chloro-N-{trans-1-[(1,3-dimethyl-1H-pyrazol-4-yl)sulfonyl]-4-phenylpyrrolidin-3-yl}-3-(trifluoromethyl)benzamide] the Ki was ≤ 10 µM. `COCCN[C@H]1CN(S(=O)(=O)c2cn(C)cn2)C[C@@H]1c1ccccc1` [Example 600, (3R,4S)-N-(2-methoxyethyl)-1-[(1-methyl-1H-imidazol-4-yl)sulfonyl]-4-phenylpyrrolidin-3-amine] was tested, and the Ki was ≤ 10 µM. With `Cc1nc(S(=O)(=O)N2C[C@H](Nc3cc(C(F)(F)F)c(Cl)cn3)[C@@H](c3ccc(F)cc3)C2)cn1C` [Example 760, 5-chloro-N-[(3R,4S)-1-[(1,2-dimethyl-1H-imidazol-4-yl)sulfonyl]-4-(4-fluorophenyl)pyrrolidin-3-yl]-4-(trifluoromethyl)pyridin-2-amine] the Ki was > 10 µM. For `Cn1cnc(S(=O)(=O)N2C[C@@H](CNc3ccc(F)cc3)[C@H](c3ccc(F)cc3)C2)c1` (relative stereo) [Example 367, 4-Fluoro-N-({trans-4-(4-fluorophenyl)-1-[(1-methyl-1H-imidazol-4-yl)sulfonyl]pyrrolidin-3-yl}methyl)aniline], the Ki was ≤ 0.1 µM. `Cc1cc(N[C@@H]2CN(S(=O)(=O)c3cn(C)cn3)C[C@H]2c2ncccc2F)ncc1F` (relative stereo) [Example 769, 5-fluoro-N-{trans-4-(3-fluoropyridin-2-yl)-1-[(1-methyl-1H-imidazol-4-yl)sulfonyl]pyrrolidin-3-yl}-4-methylpyridin-2-amine] was tested, and the Ki was ≤ 1 µM. In the case of `Cn1cnc(S(=O)(=O)N2C[C@@H](Nc3cccc(C#N)c3F)[C@H](c3ccccc3)C2)c1` (relative stereo) [Example 77, 2-fluoro-3-({trans-1-[(1-methyl-1H-imidazol-4-yl)sulfonyl]-4-phenylpyrrolidin-3-yl}amino)benzonitrile], the Ki is reported as ≤ 1 µM. With `Cn1cnc(S(=O)(=O)N2CC(Nc3ccc(F)c(F)c3)C(C3CCCO3)C2)c1` (stereo not drawn) [Example 610, N-(3,4-difluorophenyl)-1-[(1-methyl-1H-imidazol-4-yl)sulfonyl]-4-[-tetrahydrofuran-2-yl]pyrrolidin-3-amine] the Ki was ≤ 10 µM. With `Cn1cnc(S(=O)(=O)N2C[C@@H](Nc3ccc(Cl)c(Cl)c3)[C@H](c3cccc(F)c3)C2)c1` (relative stereo) [Example 192, trans-N-(3,4-dichlorophenyl)-4-(3-fluorophenyl)-1-[(1-methyl-1H-imidazol-4-yl)sulfonyl]pyrrolidin-3-amine] the Ki was ≤ 1 µM. `O=C(N[C@@H]1CN(S(=O)(=O)c2ccc(C(F)(F)F)cc2)C[C@H]1c1ccccc1)c1cc(Cl)cc(Cl)c1` (relative stereo) [Example 142, 3,5-dichloro-N-[trans-4-phenyl-1-{[4-(trifluoromethyl)phenyl]sulfonyl}pyrrolidin-3-yl]benzamide] was tested, and the Ki was ≤ 10 µM. In the case of `Cn1cnc(S(=O)(=O)N2C[C@@H](C(=O)c3cccc(Cl)c3)[C@H](c3ccc(F)cc3)C2)c1` (relative stereo) [Example 297, (3-chlorophenyl){trans-4-(4-fluorophenyl)-1-[(1-methyl-1H-imidazol-4-yl)sulfonyl]pyrrolidin-3-yl}methanone], the Ki is reported as ≤ 0.01 µM. `CCCC(F)(F)C(=O)N[C@H]1CN(S(=O)(=O)c2cn(C)cn2)C[C@@H]1c1ccc(F)cc1` [Example 700, 2,2-difluoro-N-{(3R,4S)-4-(4-fluorophenyl)-1-[(1-methyl-1H-imidazol-4-yl)sulfonyl]pyrrolidin-3-yl}pentanamide] was tested, and the Ki was ≤ 10 µM. With `Cn1cnc(S(=O)(=O)N2C[C@@H](NCc3ccc(Cl)cc3Cl)[C@H](c3ccccc3)C2)c1` (relative stereo) [Example 280, trans-N-(2,4-dichlorobenzyl)-1-[(1-methyl-1H-imidazol-4-yl)sulfonyl]-4-phenylpyrrolidin-3-amine] the Ki was ≤ 0.01 µM. With `Cn1cnc(S(=O)(=O)N2C[C@@H](NC(=O)c3cccc(C(F)(F)F)c3Cl)[C@H](c3ccc(Cl)cc3)C2)c1` (relative stereo) [Example 13, 2-chloro-N-{trans-4-(4-chlorophenyl)-1-[(1-methyl-1H-imidazol-4-yl)sulfonyl]pyrrolidin-3-yl}-3-(trifluoromethyl)benzamide] the Ki was ≤ 1 µM. `COc1ccc([C@@H]2CN(S(=O)(=O)c3cn(C)cn3)C[C@H]2NC(=O)c2cccc(C(F)(F)F)c2Cl)cc1` (relative stereo) [Example 2, 2-chloro-N-{trans-4-(4-methoxyphenyl)-1-[(1-methyl-1H-imidazol-4-yl)sulfonyl]pyrrolidin-3-yl}-3-(trifluoromethyl)benzamide] was tested, and the Ki was ≤ 1 µM.

Same assay, conditions: radioligand binding, recombinant CHO cell membranes expressing human GlyT1c
With `Cn1cnc(S(=O)(=O)N2C[C@@H](Nc3cccc(Cl)c3)[C@H](C3CCCO3)C2)c1` (relative stereo) [Example 850, Trans-N-(3-chlorophenyl)-1 - [(1-methyl-1H-imidazol-4-yl)sulfonyl] -4-(tetrahydrofuran-2-yl)pyrrolidin-3-amine] the Ki was ≤ 1 µM.
